One assay concerns C2C12 cells. Briefly: Intracellular ROS production in C2C12 cells (DCF-DA). The class given is cell-based, mice. The settings on record: oxidative stress by 50 μM TBHP, 1 h pretreatment with test substance. As for the experimental part: C2C12 cells were dispensed into a 96-well plate at 1×10^4 cells/well and stabilized for 24 hours. Subsequently, the cells were cultured for 1 hour after exchanging with the culture medium with the myocyte differentiation medium containing each test substance. After 1 hour, the cells were washed with PBS and cultured further for 3 hours with a culture medium containing 50 μM tert-butyl hydrogen peroxide (TBHP), and the ROS level in the cells was measured using a DCF-DA assay kit (Abcam) according to the manufacturer's method.
In order to investigate the effect of each of the compositions according to Examples 1 to 4 on ROS production in C2C12 cells, ROS production was measured using 2′,7′-dichlorofluorescin diacetate (DCF-DA). DCF-DA was measured using the principle that it is oxidized by ROS in cells and is converted to DCF, which emits fluorescence.

Assay [1] relates to p-AMPK, p-Sirt1, p-p38, p-Nrf2 in C2C12 cells. Briefly: Western blot of proteins related with PGC-1α activation in C2C12 cells. The class given is cell-based, mice. The settings on record: C2C12, 0.36 μg/mL (Cr 5 μg/mL), control G1 = 1.00. On the procedure: C2C12 cells were dispensed into a 6-well plate at 2×10^5 cells/well and stabilized for 24 hours. In order to investigate the effect of each test substance on muscle cell differentiation, each test substance was added to the myocyte differentiation medium. The cells were cultured for 4 days (mRNA analysis) or 7 days (protein analysis) after exchanging the cell culture medium with the myocyte differentiation medium treated with each test substance, as shown in Table 2.
C2C12 cells were dispensed into a 6-well plate at 2×10^5 cells/well and stabilized for 24 hours. The cells were cultured for 7 days after exchanging the culture medium with a myocyte differentiation medium containing the test substance. After the induction of differentiation for 7 days, the cells were homogenized by adding a lysis buffer (20 mmol/L HEPES, pH 7.5, 150 mmol/L NaCl, 1% Triton X-100, 1 mmol/L EDTA, 1 mmol/L EGTA, 100 mmol/L NaF, 10 mmol/L sodium pyrophosphate, 1 mmol/L Na3VO4, 20 μg/mL aprotinin, 10 μg/mL antipain, 10 μg/mL leupeptin, 80 μg/mL benzamidine HCl, 0.2 mmol/L PMSF) and a total cell lysate was obtained through centrifugation. The protein quantity of the total cell lysate was measured using a BCA protein assay kit (Thermo Scientific). The total cell lysate (50 μg) was separated by 10% sodium dodecyl sulfate polyacrylamide gel electrophoresis (SDS-PAGE) and then transferred to a polyvinylidene difluoride membrane (Milipore). The membrane was blocked for 1 hour in 5% skim milk-TBST (20 mmol/L Tris·HCl, pH 7.5, 150 mmol/L NaCl, 0.1% Tween 20) and then incubated for 16 hours at 4° C. or for 1 hour at room temperature after adding antibodies. Thereafter, horseradish peroxidase (HRP)-linked anti-rabbit IgG or HRP-linked anti-mouse IgG was added and the mixture was stirred for 1 hour. The detected protein bands were visualized by enhanced chemiluminescence using a Luminata™ Forte Western HRP substrate (Millipore). The level of protein expression was quantified using the ImageQuant™ LAS 500 imaging system (GE Healthcare Bio-Sciences AB).
The result of western blot analysis conducted using the total cell lysate obtained by treating with the test substance to investigate the effect of the test substance on the changes in proteins associated with PGC-1α activation is shown in Table 6.
Based on the western blot analysis result, the activity of each protein was evaluated from the ratio of activation.

As to `O=C(O)c1ccc2c3c1cccc3c(=O)n1c3ccccc3nc21` [STO], the “ROS production (fluorescence intensity)” value in the assay on C2C12 cells was found to be 33.97±2.22 fluorescence intensity. In addition, in assay [1], the p-AMPK/AMPK ratio entry is on record as “significantly inhibited”, the p-Nrf2/Nrf2 ratio result was “significantly inhibited” and the p-p38/p38 ratio result is reported as “significantly inhibited”.

The record behind these values is patent US20250057864A1, “COMPOSITION FOR IMPROVING EXERCISE PERFORMANCE COMPRISING GYPENOSIDE COMPOUND AS ACTIVE INGREDIENT” (BTC CORPORATION, priority 2022, published 2025).
